Results taken from patent US8361780B2, “Biological system and assay for identifying modulators of tubulin ligases” (University of Georgia Research Foundation, Inc., priority 2005, dated 2013).

Columns and labels:
zebrafish embryos [1] = assay: Expression pattern of southpaw in zebrafish embryos (in situ hybridization); format: in vivo
Excerpt: (§1) MO Knockdowns in Zebrafish Embryos. TTLL3-ATG MO (5′ […] 3′; SEQ ID NO:129) and TTLL3-SP MO (5′ […] 3; SEQ ID NO:130) were obtained from Open Biosystems (Huntsville, AL). TTLL3-ATG targets the translation initiation site of ttll3 mRNA. TTLL3-SP is predicted to prevent splicing of exon 11 and cause a frame shift in exon 12. This would eliminate the coding sequence downstream of exon 10, which includes a conserved catalytic domain-encoding region. To evaluate the effect of TTLL3-SP on ttll3 mRNA, total RNA was isolated with TRIzol reagent (Invitrogen, Inc., Carlsbad, Calif.) from embryos at 7 hpf: 50 uninjected control embryos, 40 embryos injected with 3 ng TTLL3-SP MO, or 30 embryos injected with 5 ng TTLL3-SP MO. Total RNA ([…]) was used as a template for cDNA synthesis with random hexamers and oligo-dT primers and the iScript TM cDNA synthesis kit (Bio-Rad Laboratories, Hercules, Calif.). cDNA ([…]) was amplified with the following primers spanning exon 11: TTLL3-splice F, 5′-[…]-3′ (exon 10; SEQ ID NO:131); TTLL3-splice R, 5′-[…]-3′ (exon 12; SEQ ID NO:132). As expected, primers flanking exon 11 produced a shorter product in RT-PCR from embryos injected with TTLL3-SP than in controls (FIG. 50D). […] As a negative control, we injected 25 base MOs with a random base mixture at each position (Gene Tools, Inc., Philomath, Oreg.).
(§2) Microscopy of Zebrafish. For whole-mount, in situ hybridization, embryos were fixed as previously described (Hagos and Dougan, 2007), stored in 100% methanol at −20° C., and stained with spaw, lefty1, lefty2, and cmlc2 probes (Yelon, 2001). Embryos were photographed under differential interference contrast with a Zeiss Axioplan 2 microscope with Slidebook (Intelligent Imaging Innovations, Denver, Colo.). For immunofluorescence, the embryos were manually dechorionated and fixed with 0.5% Triton X-100 and 4% paraformaldehyde in PBT (0.1% Tween-20 in PBS) at 4° C. overnight. After washing with PBT, embryos were dehydrated in methanol/PBT series and incubated overnight in 100% methanol at −20° C. After rehydration, embryos were blocked for 1-2 hr in 2% BSA, 0.5% normal goat serum,l%DMSO, 0.5% Triton X-100 in PBS, and incubated overnight at 4° C. with one of the following antibodies: 6-11 B-1 (1:1000); TAP952 (1:2000); AXO49 (1:2000); and GT335 (1:1000); polyE (1:500). After washing 3×10 min with 0.5% Triton X-100 in PBS, embryos were incubated overnight at 4° C. in anti-mouse-IgG-FITC or anti-rabbit-IgG-Cy3 (1:500; Zymed), washed (3×10 min), mounted in 100 mg/ml of DABCO (Sigma-Aldrich) in PBS, and examined on a Leica TCS SP confocal microscope.

zebrafish embryos [2] = assay: Heart position in zebrafish embryos, in situ hybridization; format: in vivo
Excerpt: as §1, §2

zebrafish embryos [3] = assay: Expression pattern of lefty2 in zebrafish embryos (in situ hybridization); format: in vivo
Excerpt: as §1, §2

ttll3 mRNA = assay: RT-PCR assay for TTLL3 mRNA in injected zebrafish embryos; format: in vivo; details: embryos at 7 hpf, 3 or 5 ng
Excerpt: as §1

zebrafish embryos [4] = assay: Tubulin monoglycylation in cilia of zebrafish embryos (TAP952 immunofluorescence); format: in vivo; details: 72 hpf; TTLL3-ATG MO 1 ng, TTLL3-SP MO 3 ng
Excerpt: as §1, §2

zebrafish embryos [5] = assay: Morphology of zebrafish morphant embryos; details: in vivo
Excerpt: as §1

zebrafish embryos [6] = assay: Heart position in zebrafish embryos, scoring live embryos; format: in vivo
Excerpt: as §1

“TTLL3-SP-MO: antisense morpholino 5′ GATGTACAGAGCTGAGATTGAAAAG 3; blocks splicing at the intron 10/exon 11 junction of ttll3 mRNA (all phosphorodiamidate morpholino (PMO))” was tested, and the “southpaw expression: Bilatera or midline, number of embryos” value (zebrafish embryos [1]) was 22, the “southpaw expression: Bilatera or midline, percent of embryos” value (zebrafish embryos [1]) was “(53.7%)” and the “southpaw expression: No specific signal, number of embryos” value (zebrafish embryos [1]) was 6. For the same substance, the “southpaw expression: No specific signal, percent of embryos” value (zebrafish embryos [1]) was “(14.6%)”, the “southpaw expression: left, number of embryos” value (zebrafish embryos [1]) was 12 and the “southpaw expression: left, percent of embryos” value (zebrafish embryos [1]) was “(29.3%)”. The “southpaw expression: right, number of embryos” value (zebrafish embryos [1]) was 1, the “southpaw expression: right, percent of embryos” value (zebrafish embryos [1]) was “(2.4%)” and the “heart position left, number of embryos” value (zebrafish embryos [2]) was 23. The “heart position left, percent of embryos” value (zebrafish embryos [2]) was 57.5%, the “heart position middle, number of embryos” value (zebrafish embryos [2]) was 6 and the “heart position middle, percent of embryos” value (zebrafish embryos [2]) was 15%. The “heart position right, number of embryos” value (zebrafish embryos [2]) was 11, the “heart position right, percent of embryos” value (zebrafish embryos [2]) was “(27.5%)” and the “lefty2 expression: Bilatera or midline, number of embryos” value (zebrafish embryos [3]) was 2. The “lefty2 expression: Bilatera or midline, percent of embryos” value (zebrafish embryos [3]) was “(4.8%)”, the “lefty2 expression: No specific signal, number of embryos” value (zebrafish embryos [3]) was 16 and the “lefty2 expression: No specific signal, percent of embryos” value (zebrafish embryos [3]) was “(38.1%)”. For the same substance, the “lefty2 expression: left, number of embryos” value (zebrafish embryos [3]) was 21, the “lefty2 expression: left, percent of embryos” value (zebrafish embryos [3]) was “(50%)” and the “lefty2 expression: right, number of embryos” value (zebrafish embryos [3]) was 3. The “lefty2 expression: right, percent of embryos” value (zebrafish embryos [3]) was “(7.1%)”, the “levels of endogenous TTLL3 mRNA” value (ttll3 mRNA) was “dramatic reduction” and the “levels of tubulin monoglycylation/glycylation in cilia” value (zebrafish embryos [4]) was “reduced”. The hydrocephalic morphants (zebrafish embryos [5]) was 81%, the “morphant embryos with curly tail” value (zebrafish embryos [5]) was 64.3% and the “heart position left, number of embryos” value (zebrafish embryos [6]) was 21. For the same substance, the “heart position left, percent of embryos” value (zebrafish embryos [6]) was 64%, the “heart position middle, number of embryos” value (zebrafish embryos [6]) was 8 and the “heart position middle, percent of embryos” value (zebrafish embryos [6]) was 24%. For the same substance, the “heart position right, number of embryos” value (zebrafish embryos [6]) was 4 and the “heart position right, percent of embryos” value (zebrafish embryos [6]) was “(12%)”.
